Experiment [1] deals with neutrophils on TNFα-inflamed venular endothelium of the cremaster muscle. In words: Intravital microscopy of TNFα-inflamed cremaster muscle venules, GFP+/− mice. It counts as in vivo. An excerpt: To determine if PI3Kδ contributes to leukocyte accumulation in inflamed tissues, the ability of leukocytes to interact with cytokine-stimulated endothelial cells in microvessels in the cremaster muscle of mice and to transmigrate was examined. Animals heterozygous for GFP expression under the murine lysozyme M locus control, which rendered neutrophils and other granulocytes visible by epifluorescence intravital microscopy, were used to quantitate leukocyte interactions with the vessel wall.
Mice in which green fluorescent protein (GFP) was knocked into the lysozyme M locus or the PI3Kδ catalytic subunit was deleted were generated as previously described [Faust et al., Blood, 96:719-726 (2000); and, Clayton et al., J. Exp. Med., 196:753-763 (2002)]. Subsequent matings were performed to yield mice that were heterozygous for GFP expression but deficient in PI3Kδ expression (mixed 129/Sv-C57BL/6 background) (GFP^+/−/PI3Kδ^−/− animals). All animals were handled in accordance with policies administered by institutional Animal Care and Use Committees.
The surgical preparation of animals for all in vivo studies was performed using standard techniques [see, e.g., Coxon, Immunity, 5:653-666 (1996)]. The cremaster muscle (CM) in GFP^+/− or GFP^+/−/PI3Kδ^−/− animals was inflamed with an intrascrotal injection of murine recombinant TNFα (20 ng/mouse). 2.5 hours after TNFα injection, the tissue was surgically exposed and positioned over a circular glass coverslip (25 mm) on a custom-built plexiglass stage for viewing. The stage was then placed on an intravital microscope (IV-500; Mikron instruments, San Diego, Calif.) equipped with a silicon-intensified camera (VE1000SIT; Dage mti, Michigan City, Ind.) and the tissue kept moist by superfusion with thermo-controled (37° C.) bicarbonate-buffered saline. GFP-expressing cells (predominantly neutrophils, also including fewer monocytes) were visualized through X20 or X40 water immersion objectives (Acroplan, Carl Zeiss Inc.) by epifluorescence from a Xenon arc stroboscope (Chadwick Helmuth, El Monte, Calif.) as they passed through the venous microcirculation of the cremaster muscle. Rolling fraction was defined as the percentage of cells that interact with a given venule in the total number of cells that enter that venule during the same time period. The sticking fraction was defined as the number of rolling cells that became stationary for >30 s post-superfusion of the CM with LTB4 (0.1 μM). Venular shear rates were determined from optical Doppler velocimeter measurements of centerline erythrocyte velocity. The extent of leukocyte transmigration was evaluated at 30 and 60 min after application of LTB4. Video images were recorded using a Hi8 VCR (Sony, Boston, Mass.), and analysis of performed using a PC-based image analysis system [Doggett et al., Biophys. J., 83:194-205 (2002)].
In order for leukocyte transmigration to occur, engagement of the leukocyte integrins with ICAMs expressed on venular endothelium (“firm adhesion”) is necessary for leukocytes to stably adhere to the vessel wall (in addition to the requirement for selectin-mediated tethering and rolling) [Dunne et al., Blood, 99:336-341 (2002)]. To determine the role of PI3Kδ in firm adhesion, the ability of leukocytes rolling on inflamed venular endothelium to undergo integrin-mediated firm adhesion in response to an activating stimulus was investigated in vivo.
These experiments were performed in accordance with the procedures described in Example 2.

Experiment [2] deals with PKCβII (Homo sapiens, UniProt P05771). To be noted: inhibitor 10 μM; reported by Sadhu et al.; cited from earlier work.
PKCβII, sequence (P05771 1-673 isoform P05771-2): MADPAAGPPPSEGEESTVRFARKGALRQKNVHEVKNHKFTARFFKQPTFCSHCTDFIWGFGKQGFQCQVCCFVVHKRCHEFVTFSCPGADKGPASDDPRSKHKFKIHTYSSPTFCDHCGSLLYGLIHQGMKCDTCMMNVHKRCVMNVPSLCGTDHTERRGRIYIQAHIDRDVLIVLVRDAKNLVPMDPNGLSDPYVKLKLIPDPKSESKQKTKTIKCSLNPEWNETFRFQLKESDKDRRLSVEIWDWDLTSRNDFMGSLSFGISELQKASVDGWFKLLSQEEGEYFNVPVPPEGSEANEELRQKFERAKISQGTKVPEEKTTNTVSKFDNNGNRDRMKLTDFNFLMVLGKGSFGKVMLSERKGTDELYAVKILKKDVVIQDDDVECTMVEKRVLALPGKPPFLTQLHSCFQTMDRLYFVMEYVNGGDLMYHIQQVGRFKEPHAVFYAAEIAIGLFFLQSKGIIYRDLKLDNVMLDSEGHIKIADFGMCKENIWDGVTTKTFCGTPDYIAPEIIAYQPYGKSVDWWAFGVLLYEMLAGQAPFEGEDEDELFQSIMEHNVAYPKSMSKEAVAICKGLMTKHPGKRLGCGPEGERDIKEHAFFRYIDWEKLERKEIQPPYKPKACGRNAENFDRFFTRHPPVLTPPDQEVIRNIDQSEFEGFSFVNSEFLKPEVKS
The subject of experiment [3] is ICAM-1. In words: LTB4-triggered firm adhesion of neutrophils to CHO cells transfected with human ICAM-1. It counts as cell-based. As to conditions: 2 μM; LTB4 0.1 μM; wall shear stresses 2 and 4 dyn/cm^2. The procedure: Purified neutrophils (2×10^6/ml in HBSS buffer containing 2 mM MgCl2) were incubated with 2 μM of a compound in accordance with the invention prior to conducting the adhesion assays. […] Treated neutrophils were then stimulated with LTB4 (0.1 μM) and allowed to bind in stasis to CHO cells transfected with human ICAM-1 before subjecting them to physiological wall shear stresses of 2 and 4 dyn/cm^2. ICAM-1 expression on these cells was confirmed by flow cytometry using mAb R 1/1 (fluorescence intensity>103, data not shown). […] For example, more than 80% of LTB4-stimulated neutrophils remained bound to the ICAM-1 substrate in the presence or absence of an inhibitor in accordance with the invention. The percentage of cells that remained adherent after 20 seconds (s) at each wall shear stress was determined by off-line video analysis.

Experiment [4] concerns TNFα-stimulated HUVECs. The experiment is described as follows: Neutrophil tethering to TNFα-stimulated HUVECs, parallel plate flow chamber. It counts as cell-based, human. To be noted: for reduction of neutrophil tethering to HUVECs pre-incubated with inhibitor: 2 μM, vs vehicle. How it is done: First, the effect of inhibiting PI3Kδ in endothelial cells was examined. Human umbilical vein endothelial cells (HUVECs) (3-4 passages; Cambrex Inc., East Rutherford, N.J.) grown on fibronectin-coated glass cover slips were pretreated with an inhibitor in accordance with the invention (2 μM) or vehicle control for 1 hour prior to being stimulated with TNFα (5 ng/ml, 4 h). Stimulation with TNFα induces expression of E-selectin by the endothelial cells. Peripheral blood neutrophils from healthy volunteers were isolated from whole blood by dextran sedimentation followed by density separation over Ficoll-Hypaque and hypotonic lysis. Approval was obtained from the Washington University Institutional Review Board for these studies. Informed consent was provided according to the Declaration of Helsinki. […] In additional experiments where leukocytes were pre-treated with an inhibitor of the invention as described above, the HUVECS were pre-incubated with mAb CL3 (50 μg/ml, 15 min) to block E-selectin binding. […] Endothelial cells therefore recruit leukocytes at least in part through selectins.

The target in experiment [5] is Lck (Homo sapiens, UniProt P06239). The experiment is described as follows: Protein kinase/phosphatase panel: Lck. The experiment is classed as biochemical. To be noted: inhibitor 10 μM; 100 μM ATP.
Lck, sequence (P06239 whole entry, species assumed): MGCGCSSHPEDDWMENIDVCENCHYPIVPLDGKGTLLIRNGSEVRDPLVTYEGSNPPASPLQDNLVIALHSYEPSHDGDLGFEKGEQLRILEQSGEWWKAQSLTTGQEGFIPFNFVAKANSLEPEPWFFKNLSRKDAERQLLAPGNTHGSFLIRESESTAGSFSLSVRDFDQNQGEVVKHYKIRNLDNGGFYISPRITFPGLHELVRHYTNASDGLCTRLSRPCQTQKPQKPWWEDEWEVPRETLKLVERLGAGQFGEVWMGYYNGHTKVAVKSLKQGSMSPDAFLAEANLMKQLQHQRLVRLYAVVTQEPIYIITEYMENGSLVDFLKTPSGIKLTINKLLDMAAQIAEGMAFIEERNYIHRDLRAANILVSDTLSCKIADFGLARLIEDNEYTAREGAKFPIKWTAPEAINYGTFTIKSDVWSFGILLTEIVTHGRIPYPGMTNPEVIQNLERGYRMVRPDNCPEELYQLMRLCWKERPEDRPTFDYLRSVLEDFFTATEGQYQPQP

Molecules are shown by their SMILES.

The values below come from US20080287469A1, “Phosphoinositide 3-Kinase Inhibitors for Inhibiting Leukocyte Accumulation” (priority 2005, published 2008).

For `Cc1ccccc1-n1c(Cn2cnc3c(N)ncnc32)nc2cccc(C)c2c1=O`, the “mean rolling velocities of neutrophils on TNFα-inflamed venules” value in experiment [1] (GFP+/− animals) is recorded as 40.5±12.5 μm/s. Further, in experiment [1] (LTB4 superfusion of cremaster muscle), the “LTB4-induced migration of neutrophils across inflamed microvessels” value is recorded as “diminished”. Further, the “integrin-mediated firm adhesion of rolling leukocytes in vivo” value in experiment [1] (inflamed cremaster muscle superfused with LTB4) is reported as “rapidly transitioned from rolling to firm adhesion”. In experiment [1] (inhibitor-treated GFP+/− animals), the “time the majority of neutrophils rolled before releasing from the vessel wall” value is listed as less than 2 s. Also, in experiment [1] (oral, one hour prior to intrascrotal TNFα, GFP+/− animals, vs vehicle), the “interactions between circulating granulocytes and venular endothelium” value is recorded as “significantly impaired”. Moreover, the “decrease in the number of fluorescent cells that attach and roll” value in experiment [1] (vs vehicle treated mice) is on record as more than 50%. Further, the “Activity (% of control) ± SD” value in experiment [2] is on record as “No inhibition*”; in experiment [5], 116.5 ± 9.2 % of control. In addition, the “LTB4-stimulated neutrophils remaining bound to the ICAM-1 substrate” value in experiment [3] is given as “more than 80%”. Further, the figures for the “reduction of neutrophil tethering to HUVECs pre-incubated with inhibitor” value in experiment [4] (wall shear rate 100 s^−1) and in experiment [4] (wall shear rate 300 s^−1) were 28% and 40%, respectively. For the same compound, the “neutrophil tethering after treatment of neutrophils (not HUVECs) with inhibitor” value in experiment [4] (identical concentration (2 μM), HUVEC pre-treated with only TNFα) is “did not reduce neutrophil tethering”.
